Measurements reported in patent publication US11957690B2, “Chromogenic beta-lactamase substrate” (BROWN UNIVERSITY, priority 2018, dated 2024).
Values after ≈ are worked out from the molar mass of the structure shown.

Columns and labels:
gram-negative species = settings: cited from earlier work
Staphylococcus aureus = settings: cited from earlier work
penicillinase = assay: Color change / absorbance spectrum in penicillinase; format: biochemical; settings: for Absorbance/time response in penicillinase, comparison with CENTA: FIG. 5
Description: FIG. 3 is a set of absorbance spectrum charts showing the color change of Compound 1 (ANT) in the presence of a β-lactamase came with a definite shift in Compound 1 (ANT) absorbance spectrum upon adding penicillinase, thus cleaving the β-lactam ring and expelling the 3′-leaving group. […] As the β-lactam ring is cleaved by the enzymes, the peak at 260 nm disappears.
FIG. 5 is a comparison between Compound 1 (ANT) response and CENTA response.
FIG. 6 is a chart showing deprotected ANT-maleimide in penicillinase, measuring the absorbance of conjugate at different time points.

B. cereus = assay: Microdilution assay, antibacterial efficacy (MIC); format: cell-based; settings: Bacillus cereus, Gram +, βL producing Yes, 18 h, 37° C.
[1] = target: T1, β-lactamase from Bacillus cereus (Bacillus cereus, UniProt P04190); format: biochemical
T1 construct: purchased MilliporeSigma
T1 sequence (P04190 31-257): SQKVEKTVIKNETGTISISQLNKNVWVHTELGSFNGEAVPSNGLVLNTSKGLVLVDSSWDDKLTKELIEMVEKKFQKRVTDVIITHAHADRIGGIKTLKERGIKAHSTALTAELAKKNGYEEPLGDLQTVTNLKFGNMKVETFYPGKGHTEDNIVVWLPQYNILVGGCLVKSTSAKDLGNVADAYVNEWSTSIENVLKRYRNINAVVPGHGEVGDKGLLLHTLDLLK
Protocol: (§1) Substrate Compound 2 was tested with a class B β-lactamase from Bacillus cereus (Bebrone et al., Antimicrobial Agents Chemother., 45, 1868-1871 (2001)). Substrate Compound 2 was tested with class C β-lactamases (from Pseudomonas aeruginosa (Mirsalehian et al., Iranian J. Microbiol., 6, 306-310 (2014)) and β-lactamase from Enterobacter cloacae (Seeberg, Tolxdorff-Neutzling & Wiedemann, Antimicrobial Agents Chemother., 23, 918-925 (1983)). These bacteria are present in many infections, including wounds. See, Bodey et al., Clinical Infectious Diseases, 5, 279-313 (2011) and Davin-Regli & Pages, Frontiers in Microbiology, 6, 392 (2015).
The inventors measured the concentration-dependent absorbance shift in a spectral scan of Substrate Compound 2 with different concentrations (U/mL) of β-lactamase from Bacillus cereus or in phosphate-buffered saline after 45 minutes at 37° C. The absorbance signal at 410 nm increased to a maximum as a function of β-lactamase concentration. The inventors also performed these measurements for β-lactamase from Pseudomonas aeruginosa and Enterobacter cloacae.
96-well plate. […] The samples of Substrate Compound 2 in β-lactamases from Bacillus cereus (200 U/mL in M sodium phosphate buffer, pH 7) were incubated for thirty minutes at 37° C. before the absorbance of the solution from 230 to 650 nm was measured using a BioTekQ® […]

[2] = target: T2, β-lactamase from Enterobacter cloacae (Enterobacter cloacae, UniProt P05364); assay: Colorimetric / UV-vis response to β-lactamase; format: biochemical; settings: 10% DMSO, 37° C.
T2 construct: purchased MilliporeSigma
T2 sequence (P05364 21-381): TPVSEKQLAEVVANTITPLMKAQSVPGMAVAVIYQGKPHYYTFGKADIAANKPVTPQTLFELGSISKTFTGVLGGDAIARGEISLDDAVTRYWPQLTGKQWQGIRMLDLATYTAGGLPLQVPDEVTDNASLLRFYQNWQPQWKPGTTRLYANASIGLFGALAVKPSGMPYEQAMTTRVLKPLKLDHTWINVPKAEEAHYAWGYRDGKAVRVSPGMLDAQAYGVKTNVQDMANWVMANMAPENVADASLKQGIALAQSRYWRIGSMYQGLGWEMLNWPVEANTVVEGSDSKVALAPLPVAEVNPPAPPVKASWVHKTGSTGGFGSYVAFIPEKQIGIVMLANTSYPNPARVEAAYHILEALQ
Protocol: as §1
(§2) 96-well plate. Substrate Compound 2 was dissolved in DMSO at a concentration of two mg/ml. Fifteen μL of Substrate Compound 2 was added to a well of a 96-well plate. […] The samples of Substrate Compound 2 in β-lactamases from Bacillus cereus (200 U/mL in M sodium phosphate buffer, pH 7) were incubated for thirty minutes at 37° C. before the absorbance of the solution from 230 to 650 nm was measured using a BioTekQ®
(§3) Cytation3 plate reader. For the samples in Pseudomonas aeruginosa (50 U/mL in 0.15 M sodium phosphate buffer, pH 7), the absorbance was measured after ninety minutes at 37° C. […] For the samples in Enterobacter cloacae (1 U/ml in M sodium phosphate buffer, pH 7), the absorbance was measured after three hours at 37° C. […]

[3] = target: T3, β-lactamase from Pseudomonas aeruginosa (Pseudomonas aeruginosa, UniProt P24735); assay: Colorimetric / UV-vis response to β-lactamase; format: biochemical; settings: 10% DMSO, 37° C.
T3 construct: purchased MilliporeSigma
T3 sequence (P24735 27-397): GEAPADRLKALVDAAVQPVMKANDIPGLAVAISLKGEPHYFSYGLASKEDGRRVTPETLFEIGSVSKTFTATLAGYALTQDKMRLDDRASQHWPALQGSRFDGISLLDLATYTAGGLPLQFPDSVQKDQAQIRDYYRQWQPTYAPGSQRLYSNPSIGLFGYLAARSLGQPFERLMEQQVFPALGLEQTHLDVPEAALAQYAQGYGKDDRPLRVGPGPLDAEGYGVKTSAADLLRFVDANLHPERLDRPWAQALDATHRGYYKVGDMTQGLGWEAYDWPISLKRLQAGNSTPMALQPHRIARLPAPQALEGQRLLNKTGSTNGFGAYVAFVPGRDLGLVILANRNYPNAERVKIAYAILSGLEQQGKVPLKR
Protocol: as §1, §2, §3

E. coli 25922 = assay: Microdilution assay, antibacterial efficacy (MIC); format: cell-based; settings: Escherichia coli, Gram −, βL producing Yes, 18 h, 37° C.
Protocol: (§4) The antibacterial effect of Substrate Compound 2 was tested against Staphylococcus aureus, Escherichia coli, MRSA, and Pseudomonas aeruginosa in a microdilution assay. Substrate Compound 2 was dissolved in dimethyl sulfoxide at a concentration of 2.56 mg/mL and diluted to a concentration of 256 μg/mL in sterile phosphate-buffered saline. Substrate Compound 2 solutions and a control of 10% dimethyl sulfoxide in cation-adjusted Mueller Hinton broth (CMHB) or tryptic soy broth (TSB) were serially diluted 1:2 with cation-adjusted Mueller Hinton broth or tryptic soy broth in a 96-well plate. Cation-adjusted Muller-Hinton broth (CMHB) is commercially available from MilliporeSigma (Billerica, MA, USA).
(§5) Bacteria in its log phase was added to the wells at a final concentration of 10^5 CFU/mL. Positive controls of bacteria cultured in only media and negative controls of cation-adjusted Mueller Hinton broth or tryptic soy broth without bacteria were included. After eighteen hours of shaking at 100 rpm at 37° C., the optical density at 600 nm (OD600) was measured using a BioTekQ® normalized bacteria density was calculated using equation 1: […]

S. aureus 25923 = assay: Microdilution assay, antibacterial efficacy (MIC); format: cell-based; settings: Staphylococcus aureus, Gram +, βL producing No, 18 h, 37° C.
Protocol: as §4, §5

P. aeruginosa PA01 = assay: Microdilution assay, antibacterial efficacy (MIC); format: cell-based; settings: Pseudomonas aeruginosa, Gram −, βL producing Yes, 18 h, 37° C.
Protocol: as §4, §5

S. aureus 29213 = assay: Microdilution assay, antibacterial efficacy (MIC); format: cell-based; settings: Staphylococcus aureus, Gram +, βL producing Yes, 18 h, 37° C.
Protocol: as §4, §5

Aqueous solubility = format: physicochemical
E. cloacae = assay: Microdilution assay, antibacterial efficacy (MIC); format: cell-based; settings: Enterobacter cloacae, Gram −, βL producing Yes, 18 h, 37° C.
MRSA MW2 = assay: Microdilution assay, antibacterial efficacy (MIC); format: cell-based, methicillin-resistant Staphylococcus aureus; settings: Staphylococcus aureus, Gram +, βL producing Yes, 18 h, 37° C.
Protocol: as §4, §5

[4] = tested on: β-lactamases from Bacillus cereus, Pseudomonas aeruginosa, and Enterobacter cloacae; assay: Michaelis-Menten kinetics of hydrolysis; format: biochemical; settings: compared with commercially available chromogenic β-lactamase substrates
Protocol: To further characterize substrate-enzyme relationships between Substrate Compound 2 and β-lactamases, kinetic parameters were measured using Michaelis-Menten kinetics.
Parameters were determined for Substrate Compound 2 and commercially available chromogenic β-lactamase substrates CENTA and nitrocefin as comparisons, using different β-lactamases. All kinetic experiments were performed for concentrations of Substrate Compound 2 ranging from 0.025-0.2 mg/mL with 10% DMSO, and concentrations of 4 ranging from 1.5-12.1 mg/mL in 0.15 M sodium phosphate buffer pH 7 at 37° C. Hydrolysis of Substrate Compound 2 was measured by continuously recording the change in absorbance at 410 nm on a BioTekQ® Cytation3 plate reader. The kM, kcat, and VMax values were calculated through the initial velocities and the direct fitting of the Michaelis-Menten curve to the data through GraphPad Prism software.

Compound: O=C(Cc1cccs1)N[C@@H]1C(=O)N2C(C(=O)O)=C(CSc3ccc([N+](=O)[O-])c(C(=O)O)c3)CS[C@H]12 [CENTA]
- Antibacterial activity against gram-negative species (gram-negative species): not antibacterial
- Antibacterial activity against Staphylococcus aureus (Staphylococcus aureus): some activity
- Absorbance/time response in penicillinase, comparison with CENTA (penicillinase): reaches its maximum absorbance at a faster rate than Compound 1 (ANT)

Compound: COc1ccc(COC(=O)C2=C(CSc3ccc([N+](=O)[O-])cc3)CSC3C(N)C(=O)N23)cc1 (stereo not drawn) [Compound 1]
- Color change in penicillinase compared to PBS (penicillinase; 1.5 hours at 37° C.): showed a significant color change
- Shift of maximum absorbance peak on cleavage by penicillinase (penicillinase; 1.5 hours at 37° C.): maximum absorbance peak shifts from 345 nm to 410 nm
- Color change of the conjugate incubated in penicillinase or phosphate-buffered saline (penicillinase; Example 1, protected conjugate of ACLE and NBT): does not undergo a color change
- Absorbance/time response in penicillinase, comparison with CENTA (penicillinase): behave similarly

Compound: CN(C)c1ccc(N=Nc2cccc[n+]2CC2=C(C(=O)[O-])N3C(=O)[C@@H](NC(=O)Cc4cccs4)[C@H]3SC2)cc1 [PADAC]
- Antibacterial activity against gram-negative species (gram-negative species): not antibacterial
- Antibacterial activity against Staphylococcus aureus (Staphylococcus aureus): some activity

Compound: NC1C(=O)N2C(C(=O)O)=C(CSc3ccc([N+](=O)[O-])cc3)CSC12 (stereo not drawn) [Substrate Compound 2]
- MIC (B. cereus): > 128 mg/L
- Lower detection limit of β-lactamase ([1]; absorbance at 410 nm, 45 minutes at 37° C., β-lactamase 0.78-400 U/mL): approximately 3.12 U/mL
- Color change when mixed with β-lactamase ([1]; β-lactamase from Bacillus cereus, 10% DMSO, 37° C.): changed color from clear to yellow
- Color change when mixed with β-lactamase [2]: changed color from clear to yellow
- Color change when mixed with β-lactamase [3]: changed color from clear to yellow
- MIC (E. coli 25922): > 128 mg/L
- MIC (S. aureus 25923): 8 mg/L (≈ 21.8 µM)
- MIC (P. aeruginosa PA01): > 128 mg/L
- MIC (S. aureus 29213): 8 mg/L (≈ 21.8 µM)
- Aqueous solubility (Aqueous solubility): not soluble in aqueous conditions
- MIC (E. cloacae): > 128 mg/L
- MIC (MRSA MW2): > 128 mg/L
- Kinetic rate of hydrolysis by β-lactamases [4]: kinetic rate similar to commercially available chromogenic β-lactamase substrates

Compound: O=C(Cc1cccs1)N[C@@H]1C(=O)N2C(C(=O)O)=C(/C=C/c3ccc([N+](=O)[O-])cc3[N+](=O)[O-])CS[C@H]12 [nitrocefin]
- Antibacterial activity against gram-negative species (gram-negative species): not antibacterial
- Antibacterial activity against Staphylococcus aureus (Staphylococcus aureus): some activity
